From paper PMC12610161, “Structural Engineering of Tyrosine-Based Neuroprotective Peptides: A New Strategy for Efficient Blood–Brain Barrier Penetration” (Foods, 2025)
Several values for one entry are separate records, joined by “and”; a condition that tells them apart may be missing. Identical values can stand only once. Like-named read-outs stand apart in the source and are kept apart here. Ends that are not written are not given here.

Legend:
[1] = DPPH radical scavenging activity; conditions: substrate concentration 1 mg/mL (printed for EV peptides); 30 min, 517 nm
Procedure: A modified DPPH scavenging assay was conducted following the method described by Shen et al.. 0.0023 g of DPPH was mixed with 100 mL of 95% absolute ethanol to prepare a 60 µmol/L DPPH radical working solution. The sample was then mixed with 60 µmol/L DPPH free radical working solution at a 1:1 (v/v) ratio, mixed thoroughly, and allowed to stand in the dark for 30 min. The mixture was then centrifuged at 4500 rpm for 10 min. The absorbance was measured at a wavelength of 517 nm and compared with an equivalent concentration of GSH. The DPPH radical scavenging rate was calculated using the following formula:(1) DPPH radical scavenging ratio % = 1−Aa−Ab/Ac×100% where Aa represents the absorbance value of EV, TW and YV peptides solution added to DPPH scavenging radical working solution; Ab denotes the absorbance value of the solution with 95% (v/v) absolute ethanol and the […] scavenging radical working solution; Ac is the absorbance value after mixing distilled water and DPPH in equal volumes of 1:1.

[2] = ABTS radical scavenging activity; conditions: 1 mg/mL; 6 min, 734 nm
Procedure: ABTS scavenging radical determination was conducted following the procedure of Li et al. with slight modifications. A 7 mmol/L aqueous solution of ABTS and a 2.49 mmol/L aqueous solution of potassium persulfate were mixed in a 1:1 ratio. The mixture was allowed to stand in the dark at 4 °C for 12–16 h. The concentration was adjusted using 5 mmol/L PBS (pH 7.4) to ensure that the absorbance of the ABTS radical stock solution was 0.700 ± 0.002 at a wavelength of 734 nm. EV and TW peptide aqueous solutions (10 µL), each at a concentration of 1 mg/mL, were taken. A glutathione aqueous solution with the same substrate concentration was used as the control group. After adding the samples to a black 96-well plate, 190 µL of ABTS free radical working solution was added to each well. The absorbance at 734 nm was measured using a microplate reader after a 6 min reaction.
The ABTS clearance was calculated as follows:(2) ABTS radical scavenging rate % = 1−Aa−Ab/Ac×100% where Aa represents the sample; Ab represents the absorbance of the solution in which the ABTS working solution was substituted with 5 mmol/L PBS; Ac represents the absorbance of the blank group.

[3] = Oxygen radical absorbance capacity (ORAC) assay; conditions: substrate concentration 1 mg/mL (printed for EV peptides)
Procedure: ORAC assay was performed based on the technique of Simon et al., with minor modifications. First, in black 96-well plates, 25 µL of PBS buffer (75 mmol/L, pH 7.4), 25 µL of Trolox standard solutions (at concentrations of 6.25 µM, 12.5 µM, 25 µM, 50 µM), and the peptide solution were added at a 1:1 volume ratio. Then, the samples were incubated at 37 °C for 10 min. Subsequently, 150 µL of […] sodium fluorescein was added to all wells and incubated at 37 °C for 20 min. Following this, 25 µL of 6 mmol/L azobisisobutyramidine hydrochloride (AAPH) solution was quickly added to each well. Two control groups were established: one consisted of a black 96-well plate with free radicals (+AAPH), while the other group included a black 96-well plate without free radicals (−AAPH). Both plates were placed in a microplate reader and shaken for 5 s. The excitation wavelength was set to 485 ± 20 nm, and the emission wavelength was set to 530 ± 10 nm. The entire system was set at 37 °C, and the fluorescence intensity was measured every 2 min. […]
The measurement results were expressed as ORAC values using the following formula:ORAC value = [(AUCpeptide − AUCblank)/(AUtrolox − AUCblank)] × Ctrolox/Cpeptide(4) […]

[4] = Transwell in vitro BBB model, apparent permeability; assay type: in vitro ADME; conditions: mouse, 100 µM in upper chamber, bEnd.3 monolayer, RP-HPLC of lower chamber
Procedure: The method described by Han et al. was referenced and modified. Briefly, 500 µL of bEnd.3 cells at a density of 5 × 10^4 cells/mL were seeded in the upper chamber of Transwell (0.4 µm, 12-well, PET material), and 1.5 mL of DMEM was added to the lower chamber to ensure the upper and lower chambers were aligned. After cell adherence, the culture medium in the upper chamber was changed daily, while the culture medium in the lower chamber was changed every other day. Once the transendothelial electrical resistance (TEER) was > 200 Ω·cm^2, both the upper and lower chambers were replaced with serum-free DMEM. After 12 h, EV and TW peptides, solubilized in HBSS at a concentration of 100 µM, were added to the upper chamber. After 4 h, the samples were collected separately, and RP-HPLC detection, along with Origin 2021 mapping analysis, was performed. TEER and apparent permeability coefficient (Papp) were calculated as follows:TEER = (TEERsample − TEERcontrol) × Cell Culture Area(5) (6) Papp=∆C·V/∆t·C0·A(cm/s) where ΔC represents the concentration in the lower chamber (µM), V is the volume of the lower chamber (mL), Δt indicates the experimental time (s), C0 is the initial concentration in the upper chamber, and A is the membrane area of the Transwell (cm^2).

HT22 cells = assay type: cell-based; conditions: mouse, 24 h, 100 µM
Procedure: Mouse brain microvascular endothelial cells (bEnd.3) and mouse hippocampal neuron cells (HT22) were purchased from Zhong Qiao Xin Zhou Biological Technology Ltd. (Shanghai, China). Cells were cultured in DMEM (Cat # 11965092, Gibco, New York, USA) supplemented with 1% (v/v) penicillin/streptomycin (MA0110, MeilunBio, Dalian, China) and 10% (v/v) fetal bovine serum (C04001-500, Vivacell, Shanghai, China) in a 5% CO2 humidified incubator at 37 °C, and passaged every 2 days. When cell confluence reached 85–90%, cells were seeded into 6/12 well plates at a density of 1 × 10^5 cells/mL. Once the confluence reached 85–90% again, the cells were cultured in H2O2 medium at varying concentrations for 2 h as a model group. Cell viability was assessed using MTT at 0.1 mg/mL, and the optimal H2O2 concentration was determined when the cell viability approached 50%.
When cell confluence reached 80–90%, they were incubated with 100 µM EV peptides and TW peptides, respectively, for 24 h, followed by injury with 800 µM H2O2 for 2 h to observe the protective effect of the peptides. Among them, the model group was directly injured after 24 h of incubation with DMEM.

in vivo = conditions: C57/BJ, mouse, po
Procedure: Six C57/BJ mice were randomly selected, and the peptides [sequence] and [sequence] were administered via gavage, respectively. After 10 h, the mice were euthanized by cervical dislocation, and the brains were harvested. For analysis, 3 mL of normal saline was added to each gram of brain tissue, which was then homogenized. The sample was diluted in a ratio of 1:3 with methanol solution, mixed thoroughly, and centrifuged at 12,000 rpm for 10 min. The resulting supernatant was collected for RP-HPLC analysis.
(§1) Gradient elution was conducted with a mobile phase consisting of pure water with 0.1% TFA (mobile phase A) and acetonitrile containing 0.1% TFA (mobile phase B). […] This was performed for 25 min at a flow rate of 1 mL/min.

in vitro [5] = experiment: in vitro
Procedure: Walnut peptides were dissolved in distilled water to prepare a 100 µM aqueous solution. The pH was adjusted to 2.0, and pepsin was added to simulate gastric juice digestion. After 1 and 2 h in a 37 °C water bath, 1 mL of the sample was taken and stored at 4 °C for subsequent use. The pH of the remaining solution was then adjusted to 7.0, and 5 mg/mL trypsin was added to simulate intestinal digestion. After 1 and 2 h in a 37 °C water bath, 1 mL samples were taken, filtered through a 0.22 µm pore size membrane, and analyzed via RP-HPLC.
as §1

in vitro [6] = conditions: KM, mouse, plasma; for half-life at 166.7 µM: In vitro plasma half-life
Procedure: The plasma half-life was evaluated utilizing KM mice (20 ± 2 g) obtained from Changsheng Biotechnology Co., Ltd. (Benxi, Liaoning, China). After the adaptation period, the mice were euthanized by cervical dislocation. Blood was collected from the heart and immediately transferred into an EP tube containing heparin sodium. After standing for 2 h, the plasma was separated by centrifugation at 4500 rpm at 4 °C for 15 min. A 500 µL aliquot of 500 µM peptide solution was added to 1 mL of blank plasma, mixed thoroughly by vortexing, and methanol was added in a 1:3 ratio. After vortexing for 1 min, the mixture was centrifuged at 12,000 rpm for 10 min, and the resulting supernatant was collected for RP-HPLC analysis.
Gradient elution was conducted with a mobile phase consisting of pure water with 0.1% TFA (mobile phase A) and acetonitrile containing 0.1% TFA (mobile phase B). The elution process for mobile phase B was as follows: [sequence]: 10−35%, [sequence]: 8−33%, [sequence]: 5−30%, [sequence]: 4−29%, TWLPLPR: 24−49%, TWLPYPR: 21−46%, TWLPRPR: 16−41%, TWLPKPR: 15−40%, YVPFPLP, YVPFPYP: 11–34%. This was performed for 25 min at a flow rate of 1 mL/min.

in vitro BBB model = conditions: cited from earlier work
[7] = design: method as in PMID 22934681; conditions: cited from earlier work
[8] = design: method as in PMID 29463072; conditions: cited from earlier work

N[C@@H](CCC(=O)N[C@@H](CS)C(=O)NCC(=O)O)C(=O)O [GSH, glutathione]
DPPH radical scavenging rate [1]: 70.98 ± 1.09% and 70 ± 1.09% | ABTS radical scavenging rate [2]: 73.20 ± 2.54% | ORAC value [3]: 1003.3 ± 18.6 µmol TE/g

EVSGPGKSPN [EVSGPGKSPN]
Papp A→B at 4 h, 100 µM [4]: 13.6 nm/s

EVSGPGLSPN [EVSGPGLSPN]
Papp at 4 h, 100 µM [4]: 37.8 nm/s | Cell viability (MTT) (HT22 cells): 78.63 ± 0.86% | tissue level at time at 10 h (in vivo): 250 ± 110 ng/g | recovery at 100 µM (in vitro [5]): 19.5 ± 3.33% | metabolised at 48 h, 167 µM (in vitro [6]): 2.23% | remaining at 1 h, 167 µM (in vitro [6]): 99.75 ± 0.35% | remaining at 2 h, 167 µM (in vitro [6]): 99 ± 0.75% | remaining at 4 h, 167 µM (in vitro [6]): 98.13 ± 0.06% | remaining at 8 h, 167 µM (in vitro [6]): 97.86 ± 0.49% | remaining at 12 h, 167 µM (in vitro [6]): 96.86 ± 0.5% | remaining at 24 h, 167 µM (in vitro [6]): 95.62 ± 0.64% | remaining at 36 h, 167 µM (in vitro [6]): 94.96 ± 0.36% | remaining at 48 h, 167 µM (in vitro [6]): 94.77 ± 0.64% | half-life at 166.7 µM (in vitro [6]): > 48 h

EVSGPGYSPN [EVSGPGYSPN]
Papp at 4 h, 100 µM [4]: 81 nm/s | Cell viability (MTT) (HT22 cells): 86.88 ± 3.18% | tissue level at time at 10 h (in vivo): 1250 ± 910 ng/g | recovery at 100 µM (in vitro [5]): 13.99 ± 0.02% | remaining at 1 h, 167 µM (in vitro [6]): 96.64 ± 0.53% | remaining at 2 h, 167 µM (in vitro [6]): 92.42 ± 0.74% | remaining at 4 h, 167 µM (in vitro [6]): 80.5 ± 0.65% | remaining at 8 h, 167 µM (in vitro [6]): 58.64 ± 0.52% | remaining at 12 h, 167 µM (in vitro [6]): 51 ± 0.64% | remaining at 24 h, 167 µM (in vitro [6]): 24.3 ± 1.94% | remaining at 36 h, 167 µM (in vitro [6]): 0% | remaining at 48 h, 167 µM (in vitro [6]): 0% | half-life at 166.7 µM (in vitro [6]): > 12 h

Gly-Sar
Apparent permeability (in vitro BBB model): 7.60 ± 1.29 µL/g/min

H-Tyr-D-Ala-Gly-MePhe-Gly-ol
Plasma half-life ([7]; embedded and delivered with GSH-PEG liposomes): 6.9 ± 2.3 h | Plasma half-life ([7]; free peptide): 0.153 ± 0.035 h

TWLPKPR [TWLPKPR]
Papp A→B at 4 h, 100 µM [4]: 34.5 nm/s

TWLPLPR [TWLPLPR]
Papp A→B at 4 h, 100 µM [4]: 68.5 nm/s

TWLPYPR [TWLPYPR]
Papp A→B at 4 h, 100 µM [4]: 70.6 nm/s

YVPFPLP [YVPFPLP]
Papp A→B at 4 h, 100 µM [4]: 9.99 nm/s

YVPFPYP [YVPFPYP]
Papp at 4 h, 100 µM [4]: 36.2 nm/s

eveltivir
Maximum concentration in the brain [8]: 46.5 ± 3.5 ng/g
